Laboratory results: patent publication US10239832B2, “N-(1-hydroxy-3-(pyrrolidinyl)propan-2-yl)pyrrolidine-3-carboxamide derivatives as glucosylceramide synthase inhibitors” (BIOMARIN PHARMACEUTICAL INC., priority 2013, dated 2019)

These compounds were tested against T1, GCS (Canis lupus familiaris, UniProt A0A8I3MXG6) (assay: GCS enzymatic assay (MDCK cell lysate, NBD-ceramide to glucosylceramide, LC/MS)). Conditions: Table 2; class symbols A, B, C; the table does not say which of the assays; read-out: Data Range (IC50 values).
T1 construct: endogenous in cells; host or cells: MDCK (Madin-Darby canine kidney) cells, whole-cell lysate
T1 sequence (A0A8I3MXG6 1-394): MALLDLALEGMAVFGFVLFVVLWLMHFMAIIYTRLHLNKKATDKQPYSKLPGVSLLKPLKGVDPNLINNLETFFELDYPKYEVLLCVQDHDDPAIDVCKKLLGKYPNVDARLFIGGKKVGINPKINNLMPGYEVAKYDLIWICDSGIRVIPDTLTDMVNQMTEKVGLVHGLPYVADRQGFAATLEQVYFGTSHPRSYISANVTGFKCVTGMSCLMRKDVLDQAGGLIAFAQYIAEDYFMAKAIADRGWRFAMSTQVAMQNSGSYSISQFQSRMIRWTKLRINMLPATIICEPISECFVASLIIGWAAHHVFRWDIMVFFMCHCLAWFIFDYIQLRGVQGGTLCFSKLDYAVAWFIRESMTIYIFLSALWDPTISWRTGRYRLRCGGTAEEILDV
Type: biochemical, canine
Summary of the method: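 IC50 or percent inhibition came from LC/MS/MS (ESI+, MRM) of NBD-ceramide and glucosylceramide, with tolbutamide as internal standard. The reaction used MDCK (canine) cell lysate as the enzyme source and was ended with acetonitrile. Mock wells received 0.1% DMSO.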

Compound | IC50
O=C(N[C@H](CN1CCC1)[C@H](O)c1ccc(OC2CC2)cc1)[C@@H]1CCN(c2ccc3cc(F)ccc3c2)C1 [Compound 159, (R)-N-((1R,2R)-3-(azetidin-1-yl)-1-(4-cyclopropoxyphenyl)-1-hydroxypropan-2-yl)-1-(6-fluoronaphthalen-2-yl)pyrrolidine-3-carboxamide] | 30 to 100 nM
O=C(N[C@H](CN1CCCC1)[C@H](O)c1ccc(OC2CC2)c(Cl)c1)[C@@H]1CCN(c2ccccc2)C1 [Compound 150, (R)-N-((1R,2R)-1-(3-chloro-4-cyclopropoxyphenyl)-1-hydroxy-3-(pyrrolidin-1-yl)propan-2-yl)-1-phenylpyrrolidine-3-carboxamide] | 1 to 30 nM
O=C(N[C@H](CN1CCCC1)[C@H](O)c1cc(F)c2c(c1)OCCO2)[C@@H]1CCN(c2cccc(Oc3ccc(Cl)cc3)n2)C1 [Compound 114, (R)-1-(6-(4-chlorophenoxy)pyridin-2-yl)-N((1R,2R)-1-(8-fluoro-2,3-dihydrobenzo[b][1,4]dioxin-6-yl)-1-hydroxy-3-(pyrrolidin-1-yl)propan-2-yl)pyrrolidine-3-carboxamide] | 1 to 30 nM
O=C(N[C@H](CN1CCCC1)[C@H](O)c1ccc(OC2CC2)c(Cl)c1)[C@@H]1CCN(c2ccc3ccsc3c2)C1 [Compound 91, (R)-1-(benzo[b]thiophen-6-yl)-N-((1R,2R)-1-(3-chloro-4-cyclopropoxyphenyl)-1-hydroxy-3-(pyrrolidin-1-yl)propan-2-yl)pyrrolidine-3-carboxamide] | 1 to 30 nM
O=C(N[C@H](CN1CCCC1)[C@H](O)c1cc(F)c2c(c1)OCCO2)[C@@H]1CCN(c2cccc(Oc3ccc(F)cc3)n2)C1 [Compound 116, (R)-N-((1R,2R)-1-(8-fluoro-2,3-dihydrobenzo[b][1,4]dioxin-6-yl)-1-hydroxy-3-(pyrrolidin-1-yl)propan-2-yl)-1-(6-(4-fluorophenoxy)pyridin-2-yl)pyrrolidine-3-carboxamide] | 1 to 30 nM
O=C(N[C@H](CN1CCC1)[C@H](O)c1ccc(OC2CC2)c(Cl)c1)[C@@H]1CCN(c2ccc(Cl)cc2)C1 [Compound 73, (R)-N-((1R,2R)-3-(azetidin-1-yl)-1-(3-chloro-4-cyclopropoxyphenyl)-1-hydroxypropan-2-yl)-1-(4-chlorophenyl)pyrrolidine-3-carboxamide] | 1 to 30 nM
O=C(N[C@H](CN1CCCC1)[C@H](O)c1ccc(OC2CC2)c(Cl)c1)[C@@H]1CCN(c2ccc3cc(Cl)ccc3n2)C1 [Compound 100, (R)-N-((1R,2R)-1-(3-chloro-4-cyclopropoxyphenyl)-1-hydroxy-3-(pyrrolidin-1-yl)propan-2-yl)-1-(6-chloroquinolin-2-yl)pyrrolidine-3-carboxamide] | 1 to 30 nM
O=C(N[C@H](CN1CCC1)[C@H](O)c1cc(F)c2c(c1)OCCO2)C1CCN(c2ccc3cc(Cl)ccc3c2)C1 (stereo partly drawn) [Compound 89F, N-((1R,2R)-3-(azetidin-1-yl)-1-(8-fluoro-2,3-dihydrobenzo[b][1,4]dioxin-6-yl)-1-hydroxypropan-2-yl)-1-(6-chloronaphthalen-2-yl)pyrrolidine-3-carboxamide] | 1 to 30 nM
O=C(N[C@H](CN1CCCC1)[C@H](O)c1ccc(OC2CCOCC2)c(Cl)c1)[C@@H]1CCN(c2ccc3ccccc3c2)C1 [Compound 94, (R)-N-((1R,2R)-1-(3-chloro-4-((tetrahydro-2H-pyran-4-yl)oxy)phenyl)-1-hydroxy-3-(pyrrolidin-1-yl)propan-2-yl)-1-(naphthalen-2-yl)pyrrolidine-3-carboxamide] | 1 to 30 nM
O=C(N[C@H](CN1CCCC1)[C@H](O)c1cc(F)c2c(c1)OCCO2)[C@@H]1CCN(c2ccc3cc(F)ccc3c2)C1 [Compound 52, (R)-N-((1R,2R)-1-(8-fluoro-2,3-dihydrobenzo[b][1,4]dioxin-6-yl)-1-hydroxy-3-(pyrrolidin-1-yl)propan-2-yl)-1-(6-fluoronaphthalen-2-yl)pyrrolidine-3-carboxamide] | 1 to 30 nM

Same assay, conditions: Table 2; class symbols D, E, F, NA (not active); the table does not say which of the assays

Compound | Data Range (% inhibition)
O=C(N[C@H](CN1CCCC1)[C@H](O)c1ccc2c(c1)OCCO2)[C@@H]1CCN(c2nccs2)C1 [Compound 17, (R)-N-((1R,2R)-1-(2,3-dihydrobenzo[b][1,4]dioxin-6-yl)-1-hydroxy-3-(pyrrolidin-1-yl)propan-2-yl)-1-(thiazol-2-yl)pyrrolidine-3-carboxamide] | E (50-74% (or less than 75%))
O=C(N[C@H](CN1CCCC1)[C@H](O)c1ccc2c(c1)OCCO2)[C@@H]1CCN(C2CCOCC2)C1 [Compound 9, (R)-N-((1R,2R)-1-(2,3-dihydrobenzo[b][1,4]dioxin-6-yl)-1-hydroxy-3-(pyrrolidin-1-yl)propan-2-yl)-1-(tetrahydro-2H-pyran-4-yl)pyrrolidine-3-carboxamide] | NA (not active—a negative value was generated for % inhibition)
O=C(N[C@H](CN1CCCCC1)[C@H](O)c1ccc2c(c1)OCCO2)[C@@H]1CCN(c2ccc(Cl)cc2)C1 [Compound 43, (R)-1-(4-chlorophenyl)-N-((1R,2R)-1-(2,3-dihydrobenzo[b][1,4]dioxin-6-yl)-1-hydroxy-3-(piperidin-1-yl)propan-2-yl)pyrrolidine-3-carboxamide] | F (1-49% (or less than 50%))
CC(C)Oc1ccc([C@@H](O)[C@@H](CN2CCCC2)NC(=O)[C@H]2CCN(c3ccc(Cl)cc3)C2)cc1Cl [Compound 23B, (S)-N-((1R,2R)-1-(3-chloro-4-isopropoxyphenyl)-1-hydroxy-3-(pyrrolidin-1-yl)propan-2-yl)-1-(4-chlorophenyl)pyrrolidine-3-carboxamide] | F (1-49% (or less than 50%))
O=C(N[C@H](CN1CCCC1)[C@H](O)c1ccc(OC2CC2)nc1)[C@H]1CCN(c2ccc(F)cc2)C1 [Compound 27C, (S)-N-((1R,2R)-1-(6-cyclopropoxypyridin-3-yl)-1-hydroxy-3-(pyrrolidin-1-yl)propan-2-yl)-1-(4-fluorophenyl)pyrrolidine-3-carboxamide] | F (1-49% (or less than 50%))
O=C(N[C@H](CN1CCCC1)[C@H](O)c1ccc2c(c1)OCCO2)[C@@H]1CCN(c2ccnc(OC3CC3)c2)C1 [Compound 56, (R)-1-(2-cyclopropoxypyridin-4-yl)-N-((1R,2R)-1-(2,3-dihydrobenzo[b][1,4]dioxin-6-yl)-1-hydroxy-3-(pyrrolidin-1-yl)propan-2-yl)pyrrolidine-3-carboxamide] | F (1-49% (or less than 50%))
O=C(N[C@H](CN1CCCC1)[C@H](O)c1ccc2c(c1)OCCO2)[C@H]1CCN(c2ccc3nccnc3c2)C1 [Compound 83D, (S)-N-((1R,2R)-1-(2,3-dihydrobenzo[b][1,4]dioxin-6-yl)-1-hydroxy-3-(pyrrolidin-1-yl)propan-2-yl)-1-(quinoxalin-6-yl)pyrrolidine-3-carboxamide] | NA (not active—a negative value was generated for % inhibition)
O=C(N[C@H](CN1CCCC1)[C@H](O)c1ccc2c(c1)OCCO2)C1CCN(C2CCCC2)C1 (stereo partly drawn) [Compound 11, 1-cyclopentyl-N-((1R,2R)-1-(2,3-dihydrobenzo[b][1,4]dioxin-6-yl)-1-hydroxy-3-(pyrrolidin-1-yl)propan-2-yl)pyrrolidine-3-carboxamide] | NA (not active—a negative value was generated for % inhibition)
O=C(N[C@H](CN1CCCC1)[C@H](O)c1ccc2c(c1)OCCO2)[C@@H]1CCN(c2ccccn2)C1 [Compound 22, (R)-N-((1R,2R)-1-(2,3-dihydrobenzo[b][1,4]dioxin-6-yl)-1-hydroxy-3-(pyrrolidin-1-yl)propan-2-yl)-1-(pyridin-2-yl)pyrrolidine-3-carboxamide] | E (50-74% (or less than 75%))
O=C(N[C@H](CN1CCCC1)[C@H](O)c1ccc(OC2CC2)c(Cl)c1)[C@H]1CCN(c2ccc3c(c2)CCCC3)C1 [Compound 98A, (S)-N-((1R,2R)-1-(3-chloro-4-cyclopropoxyphenyl)-1-hydroxy-3-(pyrrolidin-1-yl)propan-2-yl)-1-(5,6,7,8-tetrahydronaphthalen-2-yl)pyrrolidine-3-carboxamide] | F (1-49% (or less than 50%))
O=C(N[C@H](CN1CCCC1)[C@H](O)c1ccc2c(c1)OCCO2)C1CCN(c2ccc(Cl)c(OC3CC3)c2)C1 (stereo partly drawn) [Compound 19] | E (50-74% (or less than 75%))
O=C(N[C@H](CN1CCCC1)[C@H](O)c1cc(F)c2c(c1)OCCO2)[C@H]1CCN(c2ccccn2)C1 [Compound 48A, (S)-N-((1R,2R)-1-(8-fluoro-2,3-dihydrobenzo[b][1,4]dioxin-6-yl)-1-hydroxy-3-(pyrrolidin-1-yl)propan-2-yl)-1-(pyridin-2-yl)pyrrolidine-3-carboxamide] | F (1-49% (or less than 50%))
CCCCN1CCC(C(=O)N[C@H](CN2CCCC2)[C@H](O)c2ccc3c(c2)OCCO3)C1 (stereo partly drawn) [Compound 30, 1-butyl-N-((1R,2R)-1-(2,3-dihydrobenzo[b][1,4]dioxin-6-yl)-1-hydroxy-3-(pyrrolidin-1-yl)propan-2-yl)pyrrolidine-3-carboxamide] | NA (not active—a negative value was generated for % inhibition)
O=C(N[C@H](CN1CCCC1)[C@H](O)c1ccc2c(c1)OCCO2)C1CCN(c2ccc3nccnc3c2)C1 (stereo partly drawn) [Compound 83C, N-((1R,2R)-1-(2,3-dihydrobenzo[b][1,4]dioxin-6-yl)-1-hydroxy-3-(pyrrolidin-1-yl)propan-2-yl)-1-(quinoxalin-6-yl)pyrrolidine-3-carboxamide] | F (1-49% (or less than 50%))
